# How the values were obtained:
# Format in all cases: cell-based
# [1] = tested on: HN5 tumor cells; experiment: Method C: Cell Growth Inhibition Assay (CellTiter-Glo), HN5; conditions: Homo sapiens, 72 h, 3 days, 4-parameter fit
# Procedure, shortened: (§1)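 Growth inhibition is expressed as the concentration giving 50% inhibition relative to vehicle controls, derived from a 4-parameter fit. Tumor cells plated at 500 per well were exposed for 3 days to compound (0.2% DMSO) before total ATP was quantified by CellTiter-Glo.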
# [2] = tested on: BT474 tumor cells; experiment: Method C: Cell Growth Inhibition Assay (CellTiter-Glo), BT474; conditions: Homo sapiens, BT-474, 72 h, 3 days, 4-parameter fit
# [3] = tested on: HT-29 tumor cells; experiment: Method C: Cell Growth Inhibition Assay (CellTiter-Glo), HT-29; conditions: Homo sapiens, HT-29, 72 h, 3 days, 4-parameter fit
# Procedure, shortened: as §1
# [4] = tested on: Colo205 tumor cells; experiment: Method C: Cell Growth Inhibition Assay (CellTiter-Glo), Colo205; conditions: Homo sapiens, COLO 205, 72 h, 3 days, 4-parameter fit
# Procedure, shortened: (§2)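 Luminescent ATP signal (CellTiter-Glo, after 30 min room-temperature equilibration) served as a surrogate for cell number after a 3-day compound exposure at 37° C. Cells were plated at 500/well and treated with serially diluted compound at 0.2% DMSO. IC50 values are 4-parameter fits against DMSO-treated wells.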
# [5] = tested on: Colo205 tumor cells; experiment: Method B: CellTiter-Glo Growth Inhibition Assay, Colo205; conditions: Homo sapiens, COLO 205, 72 h, 3 days
# Procedure, shortened: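 Cells plated (BT474 3,000, HN5 500, Colo205 3,000 per well) in RPMI or DMEM with 10% FBS; compounds added next day, final DMSO 0.3%, then 3 days at 37° C, 5% CO2. Viability by CellTiter-Glo luminescence; percent inhibition versus vehicle, IC50 interpolated by nonlinear regression.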
# [6] = tested on: A375P F11s tumor cells; experiment: Method C: Cell Growth Inhibition Assay (CellTiter-Glo), A375P F11s; conditions: Homo sapiens, 72 h, 3 days, 4-parameter fit
# Procedure, shortened: as §1
# [7] = tested on: SK-MEL-3 tumor cells; experiment: Method C: Cell Growth Inhibition Assay (CellTiter-Glo), SK-MEL-3; conditions: Homo sapiens, SK-MEL3, 72 h, 3 days, 4-parameter fit
# Procedure, shortened: as §2
IC50 [1] [nM],IC50 [2] [nM],IC50 [3] [nM],IC50 [4] [nM],IC50 [5] [nM],IC50 [6] [nM],IC50 [7] [nM],SMILES
100 to 1000,100 to 1000,100 to 1000,–,100 to 1000,100 to 1000,100 to 1000,"CCNc1nc(-c2cccc(NC(=O)C3CC3)c2)c(-c2ccnc(Nc3ccc(OCCN4CCCC4)c(Cl)c3)n2)s1 [Example 63, N-{3-[5-{2-[(3-Chloro-4-{[2-(1-pyrrolidinyl)ethyl]oxy}phenyl)amino]-4-pyrimidinyl}-2-(ethylamino)-1,3-thiazol-4-yl]phenyl}cyclopropanecarboxamide]"
100 to 1000,100 to 1000,100 to 1000,–,< 100,100 to 1000,< 100,"Nc1nc(-c2cccc(C(=O)Nc3c(F)cccc3F)c2)c(-c2ccnc(Nc3cccc(CN4CCCC4)c3)n2)s1 [Example 77, 3-[2-Amino-5-(2-{[3-(1-pyrrolidinylmethyl)phenyl]amino}-4-pyrimidinyl)-1,3-thiazol-4-yl]-N-(2,6-difluorophenyl)benzamide]"
< 100,< 100,–,–,> 1000,–,–,"Cc1nc(-c2cccc(NC(=O)c3c(F)cccc3F)c2)c(-c2ccnc(Nc3ccc(OCCN(C)C)c(Cl)c3)n2)s1 [Example 103, N-[3-(5-{2-[(3-Chloro-4-{[2-(dimethylamino)ethyl]oxy}phenyl)amino]-4-pyrimidinyl}-2-methyl-1,3-thiazol-4-yl)phenyl]-2,6-difluorobenzamide]"
100 to 1000,100 to 1000,100 to 1000,100 to 1000,–,> 1000,100 to 1000,"CCc1nc(-c2cccc(NC(=O)c3c(F)cccc3F)c2)c(-c2ccnc(Nc3cccc(CN4CCCC4)c3)n2)s1 [Example 115, N-{3-[2-Ethyl-5-(2-{[3-(1-pyrrolidinylmethyl)phenyl]amino}-4-pyrimidinyl)-1,3-thiazol-4-yl]phenyl}-2,6-difluorobenzamide]"

# The next lines start with the molecule.
SMILES,IC50 [1] [nM],IC50 [2] [nM],IC50 [3] [nM],IC50 [4] [nM],IC50 [5] [nM],IC50 [6] [nM],IC50 [7] [nM]
"COc1cc(Nc2nccc(-c3sc(N)nc3-c3cccc(NC(=O)c4c(F)cccc4F)c3)n2)cc(OC)c1OC [Example 16, N-[3-(2-Amino-5-{2-[(3,4,5-trimethoxyphenyl)amino]pyrimidiN-4-yl}-1,3-thiazol-4-yl)phenyl]-2,6-difluorobenzamide]",< 100,< 100,100 to 1000,–,–,–,–
"COc1ccc(Nc2nccc(-c3sc(N)nc3-c3cccc(NC(=O)c4c(F)cccc4F)c3)n2)cc1N1CCNCC1 [Example 18, N-[3-(2-Amino-5-{2-[(4-methoxy-3-piperaziN-1-ylphenyl)amino]pyrimidiN-4-yl}-1,3-thiazol-4-yl)phenyl]-2,6-difluorobenzamide]",–,100 to 1000,–,> 1000,–,–,–
"Cc1cc(-c2sc(N)nc2-c2cccc(NC(=O)c3c(F)cccc3F)c2)nc(Nc2cccc(F)c2)n1 [Example 48, N-[3-(2-Amino-5-{2-[(3-fluorophenyl)amino]-6-methyl-4-pyrimidinyl}-1,3-thiazol-4-yl)phenyl]-2,6-difluorobenzamide]",> 1000,> 1000,–,> 1000,–,–,–
Cc1nc(-c2cccc(NC(=O)c3c(F)cccc3F)c2)c(-c2ccnc(Nc3ccc(OC4CCN(C(=O)OCc5ccccc5)CC4)c(F)c3)n2)s1 [Example 106],–,> 1000,–,> 1000,–,–,–
Cc1nc(-c2cccc(NC(=O)c3cc(F)ccc3F)c2)c(-c2ccnc(Nc3ccc(OCCN(C)C)c(Cl)c3)n2)o1 [Example 142],100 to 1000,–,–,–,> 1000,–,–

# Source: US20110098296A1, “Thiazole And Oxazole Kinase Inhibitors” (priority 2007, published 2011)
